According to patent US20150329558A1, “FUSED HETEROCYCLIC COMPOUNDS AS ION CHANNEL MODULATORS” (Gilead Sciences, Inc., priority 2011, published 2015):
Where two headings read alike, the source gives them in different places.

Legend:
[1] = Microsomal stability assay, rat; type: in vitro ADME; conditions: metabolic stability, rat liver microsomes 0.5 mg/mL, substrate 3 uM
In short: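 Liver microsomes at 0.5 mg/mL protein in 100 mM KPO4 buffer, incubated with 3 uM compound and NADPH-regenerating system, run in duplicate. Samples taken at 2, 12, 25, 45 and 65 min and quenched in MeOH/ACN/water before analysis.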

hERG potassium channel = hERG potassium channel (Homo sapiens, UniProt Q12809); experiment: hERG screening assay (PatchXpress, CHO cells); type: cell-based; conditions: % inhibition at 1 μM
Chain of hERG potassium channel (Q12809 whole entry): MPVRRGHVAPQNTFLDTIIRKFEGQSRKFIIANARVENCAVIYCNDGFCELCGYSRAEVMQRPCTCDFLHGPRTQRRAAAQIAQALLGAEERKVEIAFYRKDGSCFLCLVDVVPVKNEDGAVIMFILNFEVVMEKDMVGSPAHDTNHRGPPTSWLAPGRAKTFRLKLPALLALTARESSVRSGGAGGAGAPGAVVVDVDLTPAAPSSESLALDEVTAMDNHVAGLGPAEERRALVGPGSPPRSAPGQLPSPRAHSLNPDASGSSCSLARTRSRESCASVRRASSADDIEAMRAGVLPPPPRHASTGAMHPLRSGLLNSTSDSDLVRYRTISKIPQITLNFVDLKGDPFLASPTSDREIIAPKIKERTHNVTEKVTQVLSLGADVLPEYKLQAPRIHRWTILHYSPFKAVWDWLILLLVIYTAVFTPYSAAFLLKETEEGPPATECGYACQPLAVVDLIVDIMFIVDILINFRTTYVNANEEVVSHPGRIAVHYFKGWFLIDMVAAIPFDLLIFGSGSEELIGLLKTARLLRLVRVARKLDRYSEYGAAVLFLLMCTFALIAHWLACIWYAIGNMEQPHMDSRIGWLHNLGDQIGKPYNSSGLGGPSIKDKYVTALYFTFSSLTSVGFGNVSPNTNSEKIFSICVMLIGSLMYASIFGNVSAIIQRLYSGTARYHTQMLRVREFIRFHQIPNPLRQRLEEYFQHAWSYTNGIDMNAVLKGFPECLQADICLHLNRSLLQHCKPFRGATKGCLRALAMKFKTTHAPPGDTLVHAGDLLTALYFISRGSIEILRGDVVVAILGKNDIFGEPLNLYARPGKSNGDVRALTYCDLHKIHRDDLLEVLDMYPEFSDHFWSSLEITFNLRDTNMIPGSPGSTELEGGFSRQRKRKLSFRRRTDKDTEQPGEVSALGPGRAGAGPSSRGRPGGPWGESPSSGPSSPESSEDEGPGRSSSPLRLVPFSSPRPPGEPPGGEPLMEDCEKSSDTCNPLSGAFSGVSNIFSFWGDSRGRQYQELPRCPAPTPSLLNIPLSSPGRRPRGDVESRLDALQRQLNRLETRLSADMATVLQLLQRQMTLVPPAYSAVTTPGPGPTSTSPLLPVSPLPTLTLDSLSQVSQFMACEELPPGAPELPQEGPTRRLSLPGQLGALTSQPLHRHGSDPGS
Description: Compounds were also tested for their effect to block the hERG K^+ channel.
Compounds were screened to test their activity in blocking the hERG potassium channel at AVIVA Biosciences (San Deigo, Calif., USA). The hERG channel is heterologously expressed in a CHO (Chinese Hamster Ovary) cell line. Cells were maintained with standard tissue culture procedures and stable channel expression was maintained with 500 μg/mL G418 in the culture medium. Cells were harvested for testing on the PatchXpress 7000A automated patch clamp with Accumax (Innovative Cell Technologies, San Diego, Calif.) to isolate single cells.
The following solutions were used for electrophysiological recordings. The external solution contained: 2 mM CaCl2; 2 mM MgCl2; 4 mM KCl; 150 mM NaCl; 10 mM Glucose; 10 mM HEPES (pH 7.4 with 1M NaOH; osmolarity, ˜310 mOsm). The internal solution contained: 140 mM KCl, 10 mM MgCl2, 6 mM EGTA, 5 mM HEPES, 5 mM ATP (pH adjusted to 7.25 with KOH; osmolarity, ˜295 mOsm).
hERG channels were activated when the voltage was first stepped to −50 mV for 300 ms from the −80 mV holding potential and then stepped to +20 mV for 5 seconds. At +20 mV the channels open and then largely inactivate, so the currents are relatively small. Upon returning to −50 mV from +20 mV, hERG currents transiently become much larger as inactivation is rapidly removed and then the channel closes. The first step to −50 mV for 300 ms was used as a baseline for measuring the peak amplitude during the step to −50 mV after channel activation. The peak tail current at −50 mV was measured both under control conditions and after addition of compound, each cell serving as its own control.
All compounds were prepared as 10 mM DMSO stocks in glass vials. Stock solutions were mixed by vigorous vortexing and sonication for about 2 minutes at room temperature. For testing, compounds were diluted in glass vials using an intermediate dilution step in pure DMSO and then further diluted to working concentrations in external solution. Dilutions were prepared no longer than 20 minutes before use.
For the electrophysiological recordings, after achieving the whole-cell configuration, cells were monitored for 90 seconds to assess stability and washed with external solution for 66 seconds. The voltage protocol described above was then applied to the cells every 12 seconds and throughout the whole procedure. Only cells with stable recording parameters and meeting specified health criteria were allowed to enter the compound addition procedure.
External solution containing 0.1% DMSO (vehicle) was applied to the cells first to establish the control peak current amplitude. After allowing the current to stabilize for 3 to 5 minutes, 1 μM and then 10 μM test compounds were applied. Each compound concentration was added 4 times and cells were kept in test solution until the effect of the compound reached steady state or for a maximum of 12 minutes. After addition of test compound, a positive control (1 μM Cisapride) was added and must block >95% of the current for the experiment to be considered valid. Washout in the external solution compartment was performed until the recovery of the current reached steady state.

[2] = biological target: wild-type human cardiac sodium channel, hNav1.5 (late INa) (Homo sapiens, UniProt Q14524); experiment: Late INa screening assay (QPatch whole cell patch clamp); type: cell-based
Chain of wild-type human cardiac sodium channel, hNav1.5 (late INa) (Q14524 whole entry): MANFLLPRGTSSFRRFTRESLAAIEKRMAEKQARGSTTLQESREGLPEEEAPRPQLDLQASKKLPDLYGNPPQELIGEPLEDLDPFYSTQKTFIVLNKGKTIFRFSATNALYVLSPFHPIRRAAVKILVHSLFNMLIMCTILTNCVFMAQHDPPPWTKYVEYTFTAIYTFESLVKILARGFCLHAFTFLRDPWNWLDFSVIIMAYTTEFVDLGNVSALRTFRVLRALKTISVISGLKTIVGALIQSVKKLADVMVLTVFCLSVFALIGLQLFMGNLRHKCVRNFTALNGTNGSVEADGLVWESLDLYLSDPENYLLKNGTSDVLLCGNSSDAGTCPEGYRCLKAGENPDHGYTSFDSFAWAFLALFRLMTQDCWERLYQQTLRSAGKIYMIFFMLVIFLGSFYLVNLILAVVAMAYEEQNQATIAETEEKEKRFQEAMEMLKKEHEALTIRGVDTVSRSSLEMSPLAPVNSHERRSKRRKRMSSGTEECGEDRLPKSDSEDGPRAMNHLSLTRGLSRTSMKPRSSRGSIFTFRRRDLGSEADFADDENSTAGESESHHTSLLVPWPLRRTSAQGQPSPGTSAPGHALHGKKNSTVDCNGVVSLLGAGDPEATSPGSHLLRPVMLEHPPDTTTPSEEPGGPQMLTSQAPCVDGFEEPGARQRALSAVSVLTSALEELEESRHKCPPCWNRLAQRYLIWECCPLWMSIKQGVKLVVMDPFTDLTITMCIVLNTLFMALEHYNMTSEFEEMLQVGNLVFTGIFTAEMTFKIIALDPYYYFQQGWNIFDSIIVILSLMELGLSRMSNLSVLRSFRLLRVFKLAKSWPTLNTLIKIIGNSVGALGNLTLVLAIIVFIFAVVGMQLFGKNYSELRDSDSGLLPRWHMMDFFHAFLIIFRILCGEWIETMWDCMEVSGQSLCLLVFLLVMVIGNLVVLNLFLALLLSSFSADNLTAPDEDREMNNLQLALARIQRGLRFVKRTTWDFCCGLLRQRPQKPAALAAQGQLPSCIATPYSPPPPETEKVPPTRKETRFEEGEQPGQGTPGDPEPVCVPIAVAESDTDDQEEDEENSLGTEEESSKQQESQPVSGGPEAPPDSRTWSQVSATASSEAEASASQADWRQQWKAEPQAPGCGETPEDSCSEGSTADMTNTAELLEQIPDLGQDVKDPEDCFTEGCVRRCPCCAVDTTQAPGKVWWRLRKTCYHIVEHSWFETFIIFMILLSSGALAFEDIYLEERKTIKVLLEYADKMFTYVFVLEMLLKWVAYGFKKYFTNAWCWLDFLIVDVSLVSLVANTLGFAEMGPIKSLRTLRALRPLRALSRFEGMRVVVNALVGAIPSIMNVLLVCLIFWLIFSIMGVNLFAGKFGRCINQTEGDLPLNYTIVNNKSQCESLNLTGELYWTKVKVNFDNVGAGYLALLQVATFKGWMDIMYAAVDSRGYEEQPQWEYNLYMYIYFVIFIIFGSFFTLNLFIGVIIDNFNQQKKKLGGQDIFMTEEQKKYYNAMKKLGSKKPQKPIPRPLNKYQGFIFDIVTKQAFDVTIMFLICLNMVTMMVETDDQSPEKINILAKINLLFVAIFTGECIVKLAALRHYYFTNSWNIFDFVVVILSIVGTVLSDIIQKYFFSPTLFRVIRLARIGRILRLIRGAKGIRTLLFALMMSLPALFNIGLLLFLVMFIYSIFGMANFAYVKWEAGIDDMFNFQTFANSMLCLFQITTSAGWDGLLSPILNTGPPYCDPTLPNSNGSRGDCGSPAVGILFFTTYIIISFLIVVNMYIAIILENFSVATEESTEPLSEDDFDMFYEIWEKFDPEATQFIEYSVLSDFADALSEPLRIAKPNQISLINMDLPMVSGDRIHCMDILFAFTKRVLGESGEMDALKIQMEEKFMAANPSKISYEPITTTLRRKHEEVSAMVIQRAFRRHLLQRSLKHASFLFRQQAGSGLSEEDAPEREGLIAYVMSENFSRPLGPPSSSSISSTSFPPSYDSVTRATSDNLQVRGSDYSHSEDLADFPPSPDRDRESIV
In short: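 HEK293 cells stably expressing hNav1.5 alpha subunit without beta subunits, QPatch automated whole-cell clamp at 23-25° C, CsF-based internal solution pH 7.4. Late INa induced by 10 μM tefluthrin; 250 ms steps to −20 mV from −120 mV at 0.1 Hz, compounds at 1 μM. Percent block of mean current 225–250 ms into the step.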

[3] = % inhibition at 1 μM, read-out: NAv1.5*-LATE-
[4] = percent block of late INa, compound at 1 μM, 10 μM Tefluthrin, HEK293 hNav1.5, read-out: Late INa 1 μM

SMILES	MS Rat THalf [1] [min]	HERG* (hERG potassium channel) [%]	inhibition at 1 µM [2, 3] [%]	inhibition at 1 µM [2, 4] [%]
Cc1ncc(Cn2nnc3ccc(-c4ccc(OC(F)(F)F)cc4)cc3c2=O)o1 [II-95, 3-((2-methyloxazol-5-yl)methyl)-6-(4-(trifluoromethoxy)phenyl)benzo[d][1,2,3]triazin-4(3H)-one]	121	<10	36	36
O=c1c2cc(-c3ccc(OC(F)(F)F)cc3)ccc2nnn1CCOc1ncccn1 [II-32, 3-(2-(pyrimidin-2-yloxy)ethyl)-6-(4-(trifluoromethoxy)phenyl)benzo[d][1,2,3]triazin-4(3H)-one]	237	45	64	64
O=c1c2cc(-c3ccc(OC(F)(F)F)cc3)ccc2cnn1Cc1ncccn1 [III-5, 2-(pyrimidin-2-ylmethyl)-7-(4-(trifluoromethoxy)phenyl)phthalazin-1(2H)-one]	56	13	44	44
O=c1c2cc(-c3ccc(OC(F)(F)F)cc3)ccc2cnn1CCn1cccn1 [III-9, 2-(2-(1H-pyrazol-1-yl)ethyl)-7-(4-(trifluoromethoxy)phenyl)phthalazin-1(2H)-one]	81	37	57	57
N#Cc1ccnc(OCCn2nnc3ccc(-c4ccc(OC(F)(F)F)cc4)cc3c2=O)n1 [II-36, 2-(2-(4-oxo-6-(4-(trifluoromethoxy)phenyl)benzo[d][1,2,3]triazin-3(4H)-yl)ethoxy)pyrimidine-4-carbonitrile]	108	21	43	43
